From ChEMBL document CHEMBL1130832, “5-Alkyl-2-[(methylthiomethyl)thio]-6-(benzyl)-pyrimidin-4-(1H)-ones as potent non-nucleoside reverse transcriptase inhibitors of S-DABO series” (Bioorg Med Chem Lett, 1998)
pIC50: −log10 of the molar value.

system: not listed separately; assay: Compound was evaluated for cytotoxic activity against peripheral blood mononuclear cells using microculture tetrazolium assay; format: functional; settings: Homo sapiens

SMILES | pIC50
CCOCn1c(Cc2ccccc2)c(C(C)C)c(=O)[nH]c1=O [EMIVIRINE] | < 4.00
CCc1c(O)nc(SCSC)nc1Cc1ccccc1 | < 4.00
CSCSc1nc(O)c(C(C)C)c(Cc2ccccc2)n1 | < 4.00
Cc1cn([C@H]2C[C@H](N=[N+]=[N-])[C@@H](CO)O2)c(=O)[nH]c1=O [ZIDOVUDINE] | 4.00
CSCSc1nc(O)c(C(C)C)c(Cc2cc(C)cc(C)c2)n1 | < 4.00
CSCSc1nc(O)c(C)c(Cc2ccccc2)n1 | < 4.00

system: not listed separately; assay: Compound was evaluated for inhibition of p24 production in HIV infected peripheral blood mononuclear cells; format: functional; settings: Homo sapiens

SMILES | pIC50
CCc1c(O)nc(SCSC)nc1Cc1ccccc1 | 6.10
CSCSc1nc(O)c(C(C)C)c(Cc2ccccc2)n1 | > 9.00
Cc1cn([C@H]2C[C@H](N=[N+]=[N-])[C@@H](CO)O2)c(=O)[nH]c1=O [ZIDOVUDINE] | 8.40
CSCSc1nc(O)c(C(C)C)c(Cc2cc(C)cc(C)c2)n1 | 8.00
CSCSc1nc(O)c(C)c(Cc2ccccc2)n1 | 5.35

target: Human immunodeficiency virus type 1 reverse transcriptase (Human immunodeficiency virus 1, UniProt Q72547); assay: Compound was evaluated for enzymatic inhibitory activity against recombinant HIV reverse transcriptase; settings: not given

SMILES | pIC50
CCc1c(O)nc(SCSC)nc1Cc1ccccc1 | 5.01
CSCSc1nc(O)c(C(C)C)c(Cc2ccccc2)n1 | 5.21
Cc1cn([C@H]2C[C@H](N=[N+]=[N-])[C@@H](CO)O2)c(=O)[nH]c1=O [ZIDOVUDINE] | < 4.00
CSCSc1nc(O)c(C(C)C)c(Cc2cc(C)cc(C)c2)n1 | 5.32
CSCSc1nc(O)c(C)c(Cc2ccccc2)n1 | 4.73
